The test system of the assay is LTC4-induced contraction of guinea pig ileum. Briefly: Test for Inhibition of LTC4-Induced Guinea Pig Ilial Contractions. The note with it: Cavia porcellus, LTC4 6 nanomolar, isolated guinea pig ilial strips, four replicate tissues, read-out: Percent Inhibition of Contraction at the given Concentration of Test Compound; for inhibition at 1 µM: 1 μMolar; for inhibition at 5 µM: 5 μMolar; for inhibition at 10 µM: 10 μMolar; for inhibition at 50 µM: 50 μMolar. Here is the method: Test for Inhibition of LTC4 -Induced Guinea Pig Ilial Contractions The evaluation of potential anti-allergic compounds for antagonism of the in vitro effects of LTC4 is conducted according to the following procedure. Guinea pig ilial strips are obtained from recently killed animals and hung in isolated tissue baths comprising a balanced solution of salts such as Krebs' solution. After allowing for one hour equilibration of the tissue in the bath, the gram tension (G.T.) on one tissue is arbitrarily set at one. LTC4 (6 nanomolar concentration) is then added to the tissue bath. This induces a long, sustained contraction of the tissue that is measured on the strip chart recorder (the G.T. increases to about 2). After the LTC4 -induced contraction has plateaued and remains stable, increasing amounts of the test compound are added to the bath. If the compound is effective, a decrease in the G.T. (ΔG.T.) from the LTC4 -induced value is seen (e.g., from 2 to 1.5). The percent inhibition at each concentration is calculated according to the formula: [formula] Four replicate tissues are run.

Counter-ions that a name gives are not always drawn.

Regarding `CCCNCC(O)COc1ccc2c(c1)O/C(=C\c1ccccc1)C2=O` (stereo not drawn) [Example 1, 6-[2-Hydroxy-3-(propylamino)propoxy]aurone Hydrochloride], the inhibition at 1 µM was 16%, the inhibition at 5 µM stood at 44%, the inhibition at 10 µM was 66% and the inhibition at 50 µM came out at 135%.

Turning to `CC(C)NCC(O)COc1ccc2c(c1)O/C(=C\c1ccccc1)C2=O` (stereo not drawn) [Example 2, 6-[2-Hydroxy-3-(isopropylamino)propoxy]aurone Hydrochloride], the inhibition at 1 µM is 23%, the inhibition at 5 µM came to 48%, the inhibition at 10 µM came to 62% and the inhibition at 50 µM is 154%.

In the case of `O=C1/C(=C/c2ccccc2)Oc2cc(OCC(O)CNC3CC3)ccc21` (stereo not drawn) [Example 3, 6-[3-(Cyclopropylamino)-2-hydroxypropoxy]aurone Hydrochloride], the inhibition at 1 µM is 25%, the inhibition at 5 µM amounted to 48%, the inhibition at 10 µM worked out at 65% and the inhibition at 50 µM was found to be 144%.

Values taken from patent publication US4806660A, “Aurone oxypropanolamines” (Pennwalt Corporation, priority 1988, dated 1989).
